Test results as given in patent publication US8236783B2, “ROS-sensitive iron chelators and methods of using the same” (Duke University, priority 2006, dated 2012).
“Also recorded” adds a separate entry of the source.

Experiments:
[1] = 2-deoxyribose oxidative degradation assay (hydroxyl radical formation); conditions: chelator 0-400 μM, 200 μM H2O2, 10 μM FeCl3, 2 mM ascorbic acid, 15 mM deoxyribose, pH 7.4, 60 min at 37° C.
Experimental: Effect of chelator concentration on deoxyribose degradation by OH.. A and A0 are the absorbance at 532 nm in the presence or absence of chelator, respectively. Values below A/Ao=1 indicate protection of deoxyribose. Conditions: 200 μM H2O2, 10 μM FeCl3, 2 mM ascorbic acid, 15 mM deoxyribose in pH 7.4 NaHPO4 buffer.
Values of A/Ao above 1 indicate that the additive promotes OH. formation, whereas values below 1 indicate that the additive either scavenges OH. more efficiently than deoxyribose, or that it inhibits iron-catalyzed OH. formation via effective iron chelation.
The formation of hydroxyl radicals was measured by using a 2-deoxyribose oxidative degradation assay (Aruoma, O. I., Deoxyribose Assay for Detecting Hydroxyl Radicals. In Methods in Enzymol., 1994; Vol. 233, pp 57-66; Halliwell, B. et al., Anal. Biochem. 1987, 165, 215-219). In this assay, hydroxyl radicals, generated by reaction of an iron complex with H2O2 in the presence of ascorbic acid as a reducing agent, attack 2-deoxyribose to form malondialdehyde, which upon heating with TBA at low pH yields a pink chromogen (λmax=532 nm). Scavengers that react more effectively with hydroxyl radicals than deoxyribose result in less chromogen formation. Chelators that prevent iron from reacting with H2O2 also result in a decrease in absorption at 532 nm. Many standard buffers such as HEPES and TRIS are hydroxyl radical scavengers; therefore, we performed all assays in 50 mM NaH2PO4 buffered to pH 7.4. Our standard reaction conditions consisted of 1-mL buffered solutions prepared by sequential addition of the following reagents at their final concentrations: chelator (0-400 μM), FeCl3 (10 μM), 2-deoxyribose (15 mM), H2O2 (200 μM) and ascorbic acid (2 mM). The reactions were stirred for 60 min at 37° C., then quenched with 1 mL of TBA (1% w/v in 0.05 M NaOH) and 1 mL of TCA (2.8% w/v in water). After heating to 100° C. for 20 min, the solutions were cooled to room temperature and their absorbance at 532 nm recorded. The data are reported as A/Ao, where A is the absorbance at a 532 nm at a specific chelator concentration, and Ao is the absorbance at 532 nm for the background reaction containing no added chelator. All measurements were done in triplicate, and error bars reflect the standard deviation from triplicate runs.

[2] = time course for iron complex formation following addition of excess H2O2 (UV-vis); type: physicochemical; conditions: 100 mM H2O2 added to 1.5 mM Fe(NO3)3 and 3.0 mM BSIH in MeOH
Experimental: FIG. 2. UV-vis spectra showing the formation of [Fe(SIH)]^2+ and [Fe(SIH)2]^+ upon addition of 100 mM H2O2 to a solution of 1.5 mM Fe(NO3)3 and 3.0 mM BSIH in MeOH.
Although the kinetics are complicated by the mono to bis Fe(SIH)x coordination, the data fit a pseudo first-order expression to give kobs=1.6×10^−3 s^−1.

[3] = UV-vis spectra of iron complex formation; type: physicochemical; conditions: 60 μM BSIH, 30 μM Fe(NO3)3 in MeOH
Description: FIG. 1. […] The expanded view in the inset compares the mono and bis species [Fe(SIH)Cl2(CH3OH)] and [Fe(SIH)2]NO3, respectively.
These two species are distinguishable by a ligand-field band centered at 658 nm that is more pronounced in the mono species compared to the bis species (FIG. 1 inset).

Row | Structure (SMILES) | effect of chelator concentration on deoxyribose degradation, A/Ao at 532 nm [1] | kobs (pseudo first-order) for iron complex formation [2] [s⁻¹] | iron complex formation after addition of H2O2 (UV-vis spectrum) ([3]; 0.6 mM H2O2 added) | complex formation with Fe^3+ (UV-vis spectrum) ([3]; no H2O2)
1 | O=C(O)CN(CCN(CC(=O)O)CC(=O)O)CC(=O)O [EDTA] | significant increase |  |  | 
2 | CC1(C)OB(c2ccccc2C=NNC(=O)c2ccncc2)OC1(C)C [BSIH, Isonicotinic acid [2-(4,4,5,5-tetramethyl-[1,3,2]dioxaborolan-2-yl)-benzylidene]-hydrazide] | protects against deoxyribose degradation as well as both DFO and SIH | 0.0016 | results in formation of a new spectrum matching that of [Fe(SIH)2]^+; also recorded: results in a spectrum (open circles) that matches that of [Fe(SIH)2]^+ | does not form a complex; also recorded: no complex formation
3 | CC1(C)OB(c2ccccc2C=O)OC1(C)C [Bsal, (2-formylphenyl)boronic acid pinacol ester] | Neither Bsal nor Sal has a significant influence |  |  | 
4 | O=C(NN=Cc1ccccc1O)c1ccncc1 [SIH, salicylaldehyde isonicotinoyl hydrazone] | decrease |  |  | 
5 | CC(=O)N(O)CCCCCNC(=O)CCC(=O)N(O)CCCCCNC(=O)CCC(=O)N(O)CCCCCN [DFO, desferrioxamine] | decrease |  |  | 
